Drawing on patent publication US20260356851A1, “TRICYCLIC COMPOUNDS AND USES THEREOF” (HUTCHMED LIMITED, priority 2023, published 2026), this text covers IC50 for six molecules.

Bounds are passed on as bounds.

Common to all, as to format: cell-based
The target of experiment [1] is T1, pERK1/2 (Thr202/Tyr204), NCI-1H358 (KRAS G12C) (Homo sapiens, UniProt P01116, G12C).
T1 construct: pERK1/2 HTRF read-out
Put plainly: Assay of intracellular pERK1/2 (Thr202/Tyr204) phosphorylation in NCI-H358 cells (KRAS G12C). The following applies: pERK1/2, 2 days, read-out: NCI-H358 (KRAS G12C) IC50. The procedure, abridged:
(§1)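 HTRF detection of Thr202/Tyr204-phosphorylated ERK1/2 (665/615 nm ratio) in lysates from cells treated 2 days with serially 3-fold diluted compound.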

In experiment [2] the target is T2, pERK1/2 (Thr202/Tyr204), NCI-1H441 (KRAS G12V) (Homo sapiens, UniProt P01116, G12V).
T2 construct: pERK1/2 HTRF read-out
In words: Assay of intracellular pERK1/2 (Thr202/Tyr204) phosphorylation in NCI-H441 cells (KRAS G12V). The following applies: pERK1/2, 2 days, read-out: NCI-H441 (KRAS G12V) IC50. The procedure, abridged:
as §1

For experiment [3], the target named is T3, pERK1/2 (Thr202/Tyr204), PANC-1 (KRAS G121D) (Homo sapiens, UniProt P01116, G12D).
T3 construct: pERK1/2 HTRF read-out
Put plainly: Assay of intracellular pERK1/2 (Thr202/Tyr204) phosphorylation in PANC-1 cells (KRAS G12D). The following applies: pERK1/2, 2 days, read-out: PANC-1 (KRAS G12D) IC50. The procedure, abridged: as §1

T2 sequence (P01116 1-188 isoform P01116-2 G12V): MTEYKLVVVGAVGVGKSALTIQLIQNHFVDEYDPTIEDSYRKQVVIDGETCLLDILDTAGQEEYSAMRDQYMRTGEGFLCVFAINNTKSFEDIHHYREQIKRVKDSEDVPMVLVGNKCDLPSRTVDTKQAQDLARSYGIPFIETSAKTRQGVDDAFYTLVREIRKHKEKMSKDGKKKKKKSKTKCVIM
T1 sequence (P01116 1-188 isoform P01116-2 G12C): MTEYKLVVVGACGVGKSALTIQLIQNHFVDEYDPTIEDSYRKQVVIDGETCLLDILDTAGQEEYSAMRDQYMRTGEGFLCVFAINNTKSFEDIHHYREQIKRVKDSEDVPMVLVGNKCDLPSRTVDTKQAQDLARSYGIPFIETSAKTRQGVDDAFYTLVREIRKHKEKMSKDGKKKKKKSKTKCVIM
T3 sequence (P01116 1-188 isoform P01116-2 G12D): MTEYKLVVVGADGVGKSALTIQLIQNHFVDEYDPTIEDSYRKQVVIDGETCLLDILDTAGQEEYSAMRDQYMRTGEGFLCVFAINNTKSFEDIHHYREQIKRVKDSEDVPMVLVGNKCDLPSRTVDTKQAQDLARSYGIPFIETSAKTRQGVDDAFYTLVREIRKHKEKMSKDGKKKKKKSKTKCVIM

For orientation: IC50 means the concentration that gives 50% inhibition. Turning to `[2H]C([2H])(Oc1nc2c3c(nc(-c4cc(N)cc(C)c4C(F)(F)F)c(F)c3n1)OCCN2C(C)c1cccnc1N)[C@@H]1C[C@@H](F)CN1C([2H])([2H])[2H]` (single isomer, unassigned) [Compound 132, 3-((R or S)-1-(5-(5-amino-3-methyl-2-(trifluoromethyl)phenyl)-4-fluoro-2-(((2S,4R)-4-fluoro-1-(methyl-d3)pyrrolidin-2-yl)methoxy-d2)-8,9-dihydro-10H-7-oxa-1,3,6,10-tetraazacyclohepta[de]naphthalen-10-yl)ethyl)pyridin-2-amine], the IC50 in experiment [1] came to 0.4 nM; in experiment [2] it was 1 nM; in experiment [3] it was 14 nM.

As for `[2H]C([2H])(Oc1nc2c3c(nc(-c4cc(N)cc(C)c4C(F)(F)F)c(F)c3n1)OCCN2C(C)c1cccnc1N)[C@@H]1C[C@@H](F)CN1C([2H])([2H])[2H]` (single isomer, unassigned) [Compound 133, 3-((R or S)-1-(5-(5-amino-3-methyl-2-(trifluoromethyl)phenyl)-4-fluoro-2-(((2S,4R)-4-fluoro-1-(methyl-d3)pyrrolidin-2-yl)methoxy-d2)-8,9-dihydro-10H-7-oxa-1,3,6,10-tetraazacyclohepta[de]naphthalen-10-yl)ethyl)pyridin-2-amine], the IC50 in experiment [1] is 3 nM; in experiment [2], 10 nM; in experiment [3] it was over 100 nM.

As for `Cc1c(F)c(N)cc(-c2nc3c4c(nc(OC[C@@]56CCCN5C[C@H](F)C6)nc4c2F)N([C@H](C)c2cccnc2N)CCO3)c1C(F)(F)F` (single isomer, unassigned) [Compound 137], the IC50 worked out at 0.1 nM in experiment [1], 0.2 nM in experiment [2] and 0.9 nM in experiment [3].

`Cc1c(F)c(N)cc(-c2nc3c4c(nc(OC[C@@]56CCCN5C[C@H](F)C6)nc4c2F)N(C(C)c2cccnc2N)CCO3)c1C(F)(F)F` (single isomer, unassigned) [Compound 138, 3-((R or S)-1-(5-(5-amino-4-fluoro-3-methyl-2-(trifluoromethyl)phenyl)-4-fluoro-2-(((2R,7aS)-2-fluorotetrahydro-1H-pyrrolizin-7a(5H)-yl)methoxy)-8,9-dihydro-10H-7-oxa-1,3,6,10-tetraazacyclohepta[de]naphthalen-10-yl)ethyl)pyridin-2-amine]: the IC50 came to 13 nM in experiment [1], 17 nM in experiment [2] and 30 nM in experiment [3].

For `[2H]C([2H])(Oc1nc2c3c(nc(-c4cc(O)cc(Cl)c4C4CC4)c(F)c3n1)OCCN2[C@H](C)c1cccnc1N)[C@@H]1C[C@@H](F)CN1C([2H])([2H])[2H]` (single isomer, unassigned) [Compound 142, 3-(10-((R or S)-1-(2-aminopyridin-3-yl)ethyl)-4-fluoro-2-(((2S,4R)-4-fluoro-1-(methyl-d3)pyrrolidin-2-yl)methoxy-d2)-9,10-dihydro-8H-7-oxa-1,3,6,10-tetraazacyclohepta[de]naphthalen-5-yl)-5-chloro-4-cyclopropylphenyl], the 50% inhibitory concentration (IC50) in experiment [1], in experiment [2] and in experiment [3] was over 100 nM each time.

`[2H]C([2H])(Oc1nc2c3c(nc(-c4cc(O)cc(Cl)c4C4CC4)c(F)c3n1)OCCN2[C@@H](C)c1cccnc1N)[C@@H]1C[C@@H](F)CN1C([2H])([2H])[2H]` (single isomer, unassigned) [Compound 143, 3-(10-((R or S)-1-(2-aminopyridin-3-yl)ethyl)-4-fluoro-2-(((2S,4)-4-fluoro-1-(methyl-d3)pyrrolidin-2-yl)methoxy-d2)-9,10-dihydro-8H-7-oxa-1,3,6,10-tetraazacyclohepta[de]naphthalen-5-yl)-5-chloro-4-cyclopropylphenol]: the IC50 in experiment [1] is 0.5 nM; in experiment [2], 2 nM; in experiment [3], 21 nM.
